What all share (format): biochemical
The subject of one assay is glutamine synthetase. Description: Metabolism of glutamic acid to glutamine in wheat germ cell-free system, 1H-15N HSQC of synthesized yeast ubiquitin. How it is done:
(§1) The mixed solution was allowed to react for 2 days with a dialysis buffer solution, wherein only one type of amino acid had been labeled with ^15N (manufactured by Cambridge Isotope Laboratories) and 19 types of remaining amino acids were ordinary amino acids. Thereafter, the dialysis buffer solution was exchanged with a fresh buffer solution, and the protein synthesis reaction was carried out further for 2 days. Thereafter, 1 ml of the reaction solution was concentrated to 250 μl using a Centricon-3 ultrafiltration concentration device manufactured by Millipore. […] The concentrated solution was passed through a Micro Spin G-25 gel filtration column manufactured by Amersham that had previously been equilibrated with a buffer solution used for NMR measurement (50 mM sodium phosphate, pH 6.5, 100 mM NaCl), so that the buffer solution was exchanged with a buffer solution used for the measurement, thereby preparing an NMR measurement sample.
(§2) For the NMR measurement, an Avance-500 spectrometer manufactured by Bruker was used. In order to maintain the stability of a magnetic field, 10% D2O used for NMR lock was added to the measurement sample, and thereafter, ^1H-^15N HSQC measurement was carried out. The measurement temperature was set at 30° C.
(§3) Subsequently, the concentration of aminooxyacetic acid in a translation solution and an external dialysis solution was set at 1 mM. The following 3 types of substrate amino acids were prepared: (1) only alanine was labeled with ^15N and 19 types of remaining amino acids were ordinary amino acids; (2) only aspartic acid was labeled with ^15N and 19 types of remaining amino acids were ordinary amino acids; and (3) only glutamic acid was labeled with ^15N and 19 types of remaining amino acids were ordinary amino acids. Using these substrate amino acids, yeast ubiquitins were synthesized by the same method as described in Example 1, and the ^1H-^15N HSQC was measured. […] Moreover, the aforementioned experiment was carried out under conditions whereby the concentration of aminooxyacetic acid was set at 0.1 μM, 1 μM, 10 μM, 100 μM, and 1 mM.
(§4) Subsequently, the concentration of aminooxyacetic acid was set at 1 mM and the concentration of L-methionine sulfoximine was set at 0.1 mM in a translation solution and an external dialysis solution. Substrate amino acid was prepared such that only glutamic acid was labeled with ^15N and 19 types of remaining amino acids were ordinary amino acids. Using such substrate amino acid, yeast ubiquitin was synthesized by the same method as described in examples, and the ^1H-^15N HSQC was measured. […] Moreover, the aforementioned experiment was carried out under conditions whereby the concentration of L-methionine sulfoximine was set at 0.1 μM, 1 μM, 10 μM, and 100 μM.

Assay [1] relates to cell-free protein synthetic system containing a wheat germ extract. The assay is described as follows: Amount of GFP synthesized by wheat germ cell-free protein synthesis (GFP fluorescence intensity).
The subject of the next assay is transaminase. The assay is described as follows: Amino acid metabolism by transaminase in wheat germ cell-free system, 1H-15N HSQC of synthesized yeast ubiquitin. The note with it: for metabolism of glutamic acid to aspartic acid: only glutamic acid labeled with 15N. How it is done: as §1, §2, §3, §4

As for `CS(=N)(=O)CC[C@H](N)C(=O)O` (stereo partly drawn) [L-methionine sulfoximine], in the assay with glutamine synthetase (0.1 mM L-methionine sulfoximine plus 1 mM aminooxyacetic acid, only glutamic acid labeled with 15N, FIG. 8), the “metabolism of glutamic acid to glutamine” value is given as “suppressed”. Further, the results for the “inhibition of the metabolism” value in the assay with glutamine synthetase (L-methionine sulfoximine 10 μM) and in the assay on glutamine synthetase (L-methionine sulfoximine 100 μM or more) were “two thirds” and “completely inhibited”, respectively. Also, the “amount of GFP synthesized” value in assay [1] (L-methionine sulfoximine 20 mM or less in external dialysis solution and reaction solution, FIG. 7) is “not reduced”.
For `NOCC(=O)O` [aminooxyacetic acid], the “activity of metabolizing glutamic acid to glutamine” value with glutamine synthetase (1 mM aminooxyacetic acid, only glutamic acid labeled with 15N, FIG. 6) was “has still remained”. Besides, the “metabolism of glutamic acid to aspartic acid” value was “suppressed” in the assay with transaminase (1 mM aminooxyacetic acid plus 0.1 mM L-methionine sulfoximine, FIG. 8) and “suppressed” with transaminase (1 mM aminooxyacetic acid, FIG. 6). Also, the “HSQC signals observed (selective labeling)” value is recorded as “only signal derived from alanine or aspartic acid was observed” with transaminase (1 mM aminooxyacetic acid, only alanine labeled with 15N, FIG. 5A) and “only signal derived from alanine or aspartic acid was observed” in the assay on transaminase (1 mM aminooxyacetic acid, only aspartic acid labeled with 15N, FIG. 5B). Besides, the “inhibition of the metabolism” value with transaminase (aminooxyacetic acid 10 μM) is reported as “two thirds”; with transaminase (aminooxyacetic acid 100 μM or more), “completely inhibited”. In addition, the “amount of GFP synthesized” value in assay [1] (aminooxyacetic acid 4 mM or less in external dialysis solution and reaction solution, FIG. 4) is “not reduced”. Besides, in assay [1] (aminooxyacetic acid 10 mM, FIG. 4), the “synthesized amount of GFP maintained” value is “approximately 70%”.

Values taken from patent publication US20060216791A1, “Method for synthesizing amino-acid-selectively labeled protein” (Mitsubishi Chemical Corporation, priority 2003, published 2006).
